Data reported in patent US8207172B2 (Bayer Intellectual Property GmbH, priority 2004, dated 2012).
Counter-ions that a name gives are not always drawn.

Key:
[1] = system: A431 cells (human epidermoid carcinoma); assay: In vitro tumor cell proliferation assay (Cell Titer-Glo luminescent cell viability), A431; format: cell-based; conditions: A-431, 72 h, 72 hours of drug exposure, ATP luminescence readout, read-out: IC50, anti-proliferative activity (inhibition of cell proliferation)
Procedure, shortened: (§1)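 CellTiter-Glo luminescence (ATP content of metabolically active cells) after 72 h compound exposure at 37° C gave IC50s.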

[2] = system: BT474 (human breast carcinoma); assay: In vitro tumor cell proliferation assay (Cell Titer-Glo luminescent cell viability), BT474; format: cell-based; conditions: BT-474, 72 h, BT474 cells, 72 hours of drug exposure, ATP luminescence readout, read-out: IC50, anti-proliferative activity (inhibition of cell proliferation)
Procedure, shortened: as §1

SMILES | IC50 [1] [µM] | IC50 [2] [µM]
CN1CCN(CCn2ncc3c2CCc2c-3sc3ncnc(Nc4ccc(OCc5ccccn5)c(Cl)c4)c23)CC1 [Example 112, N-[3-chloro-4-(pyridin-2-ylmethoxy)phenyl]-3-[2-(4-methylpiperazin-1-yl)ethyl]-4,5-dihydro-3H-pyrimido[5′,4′:4,5]thieno[2,3-e]indazol-6-amine] | ≤ 5 | ≤ 1
COCCNCCn1ncc2c1CCc1c-2sc2ncnc(Nc3ccc(OCc4ccccn4)c(Cl)c3)c12 [Example 113, N-[3-chloro-4-(pyridin-2-ylmethoxy)phenyl]-3-{2-[(2-methoxyethyl)amino]ethyl}-4,5-dihydro-3H-pyrimido[5′,4′:4,5]thieno[2,3-e]indazol-6-amine] | ≤ 50 | ≤ 1
CS(=O)(=O)CCNCCn1ncc2c1CCc1c-2sc2ncnc(Nc3ccc(OCc4ccccn4)c(Cl)c3)c12 [Example 114, N-[3-chloro-4-(pyridin-2-ylmethoxy)phenyl]-3-(2-{[2-(methylsulfonyl)ethyl]amino}ethyl)-4,5-dihydro-3H-pyrimido[5′,4′:4,5]thieno[2,3-e]indazol-6-amine] | ≤ 5 | ≤ 1
CC(C)(C)[Si](C)(C)OCCn1cc2c(n1)CCc1c-2sc2ncnc(Nc3ccc(OCc4ccccc4)c(Cl)c3)c12 [Example 123, N-[4-(benzyloxy)-3-chlorophenyl]-2-(2-{[tert-butyl(dimethyl)silyl]oxy}ethyl)-4,5-dihydro-2H-pyrimido[5′,4′:4,5]thieno[2,3-e]indazol-6-amine] | ≤ 50 | ≤ 5
Clc1cc(Nc2ncnc3sc4c(c23)CCc2nn(CCN3CCOCC3)cc2-4)ccc1OCc1ccccc1 [Example 126, N-[4-(benzyloxy)-3-chlorophenyl]-2-(2-morpholin-4-ylethyl)-4,5-dihydro-2H-pyrimido[5′,4′:4,5]thieno[2,3-e]indazol-6-amine] | ≤ 50 | ≤ 1
Clc1cc(Nc2ncnc3sc4c(c23)CCc2n[nH]cc2-4)ccc1OCc1ccccc1 [Example 127, N-[4-(benzyloxy)-3-chlorophenyl]-4,5-dihydro-2H-pyrimido[5′,4′:4,5]thieno[2,3-e]indazol-6-amine] | ≤ 5 | ≤ 1
C=CCn1ncc2c1CCc1c-2sc2ncnc(Nc3ccc(OCc4cccc(F)c4)c(Cl)c3)c12 [Example 129, 3-allyl-N-{3-chloro-4-[(3-fluorobenzyl)oxy]phenyl}-4,5-dihydro-3H-pyrimido[5′,4′:4,5]thieno[2,3-e]indazol-6-amine] | ≤ 50 | ≤ 1
CCCn1ncc2c1CCc1c-2sc2ncnc(Nc3ccc(OCc4cccc(F)c4)c(Cl)c3)c12 [Example 131, N-{3-chloro-4-[(3-fluorobenzyl)oxy]phenyl}-3-propyl-4,5-dihydro-3H-pyrimido[5′,4′:4,5]thieno[2,3-e]indazol-6-amine trifluoroacetate] | ≤ 50 | ≤ 1
OCC(O)Cn1ncc2c1CCc1c-2sc2ncnc(Nc3ccc(OCc4cccc(F)c4)c(Cl)c3)c12 (stereo not shown) [Example 132, 3-[6-({3-chloro-4-[(3-fluorobenzyl)oxy]phenyl}amino)-4,5-dihydro-3Hpyrimido[5′,4′:4,5]thieno[2,3-e]indazol-3-yl]propane-1,2-diol] | ≤ 5 | ≤ 1
COCCN1CCN(C[C@@H](O)Cn2cc3c(n2)CCc2c-3sc3ncnc(Nc4ccc(OCc5cccc(F)c5)c(Cl)c4)c23)CC1 [Example 133, (2R)-1-[6-({3-chloro-4-[(3-fluorobenzyl)oxy]phenyl}amino)-4,5-dihydro-2H-pyrimido[5′,4′:4,5]thieno[2,3-e]indazol-2-yl]-3-[4-(2-methoxyethyl)piperazin-1-yl]propan-2-ol] | ≤ 50 | ≤ 1
COCCN1CCN(C[C@@H](O)Cn2ncc3c2CCc2c-3sc3ncnc(Nc4ccc(OCc5cccc(F)c5)c(Cl)c4)c23)CC1 [Example 134, (2R)-1-[6-({3-chloro-4-[(3-fluorobenzyl)oxy]phenyl}amino)-4,5-dihydro-3H-pyrimido[5′,4′:4,5]thieno[2,3-e]indazol-3-yl]-3-[4-(2-methoxyethyl)piperazin-1-yl]propan-2-ol] | ≤ 50 | ≤ 1
OC(CN1CCOCC1)Cn1cc2c(n1)CCc1c-2sc2ncnc(Nc3ccc(OCc4cccc(F)c4)c(Cl)c3)c12 (stereo not shown) [Example 135, 1-[6-({3-chloro-4-[(3-fluorobenzyl)oxy]phenyl}amino)-4,5-dihydro-2H-pyrimido[5′,4′:4,5]thieno[2,3-e]indazol-2-yl]-3-morpholin-4-ylpropan-2-ol] | ≤ 50 | ≤ 1
CN1CCN(C[C@@H](O)Cn2cc3c(n2)CCc2c-3sc3ncnc(Nc4ccc(OCc5cccc(F)c5)c(Cl)c4)c23)CC1 [Example 136, (2R)-1-[6-({3-chloro-4-[(3-fluorobenzyl)oxy]phenyl}amino)-4,5-dihydro-2H-pyrimido[5′,4′:4,5]thieno[2,3-e]indazol-2-yl]-3-(4-methylpiperazin-1-yl)propan-2-ol] | ≤ 50 | ≤ 1
COCCN(CCOC)C[C@@H](O)Cn1cc2c(n1)CCc1c-2sc2ncnc(Nc3ccc(OCc4cccc(F)c4)c(Cl)c3)c12 [Example 138, (2R)-1-[bis(2-methoxyethyl)amino]-3-[6-({3-chloro-4-[(3-fluorobenzyl)oxy]phenyl}amino)-4,5-dihydro-2H-pyrimido[5′,4′:4,5]thieno[2,3-e]indazol-2-yl]propan-2-ol] | ≤ 50 | ≤ 1

Continued, values first:

IC50 [1] [µM] | IC50 [2] [µM] | SMILES
≤ 50 | ≤ 1 | Cc1cccc(COc2ccc(Nc3ncnc4sc5c(c34)CCc3nn(CCO)cc3-5)cc2Cl)n1 [Example 115]
≤ 50 | ≤ 5 | Cc1cccc(COc2ccc(Nc3ncnc4sc5c(c34)CCc3nn(CCOS(C)(=O)=O)cc3-5)cc2Cl)n1 [Example 116, 2-[6-({3-chloro-4-[(6-methylpyridin-2-yl)methoxy]phenyl}amino)-4,5-dihydro-2H-pyrimido[5′,4′:4,5]thieno[2,3-e]indazol-2-yl]ethyl methanesulfonate]
≤ 50 | ≤ 5 | Cc1cccc(COc2ccc(Nc3ncnc4sc5c(c34)CCc3nn(CCN4CCN(C)CC4)cc3-5)cc2Cl)n1 [Example 117, N-{3-chloro-4-[(6-methylpyridin-2-yl)methoxy]phenyl}-2-[2-(4-methylpiperazin-1-yl)ethyl]-4,5-dihydro-2H-pyrimido[5′,4′:4,5]thieno[2,3-e]indazol 6-amine]
≤ 50 | ≤ 5 | CCN1CCN(CCn2cc3c(n2)CCc2c-3sc3ncnc(Nc4ccc(OCc5cccc(C)n5)c(Cl)c4)c23)CC1 [Example 118, N-{3-chloro-4-[(6-methylpyridin-2-yl)methoxy]phenyl}-2-[2-(4-ethylpiperazin-1-yl)ethyl]-4,5-dihydro-2H-pyrimido[5′,4′:4,5]thieno[2,3-e]indazol-6-amine]
≤ 50 | ≤ 5 | Cc1cccc(COc2ccc(Nc3ncnc4sc5c(c34)CCc3nn(CCN4CCOCC4)cc3-5)cc2Cl)n1 [Example 119, N-{3-chloro-4-[(6-methylpyridin-2-yl)methoxy]phenyl}-2-(2-morpholin-4-ylethyl)-4,5-dihydro-2H-pyrimido[5′,4′:4,5]thieno[2,3-e]indazol-6-amine]
≤ 5 | ≤ 5 | Cc1cccc(COc2ccc(Nc3ncnc4sc5c(c34)CCc3n[nH]cc3-5)cc2Cl)n1 [Example 120, N-{3-chloro-4-[(6-methylpyridin-2-yl)methoxy]phenyl}-4,5-dihydro-2H-pyrimido[5′,4′:4,5]thieno[2,3-e]indazol-6-amine]
≤ 5 | ≤ 1 | CCN1CCN(CCn2cc3c(n2)CCc2c-3sc3ncnc(Nc4ccc(OCc5cccc(F)c5)c(Cl)c4)c23)CC1 [Example 121, N-{3-chloro-4-[(3-fluorobenzyl)oxy]phenyl}-2-[2-(4-ethylpiperazin-1-yl)ethyl]-4,5-dihydro-2H-pyrimido[5′,4′:4,5]thieno[2,3-e]indazol-6-amine]
≤ 5 | ≤ 1 | COCCN1CCN(CCn2cc3c(n2)CCc2c-3sc3ncnc(Nc4ccc(OCc5cccc(F)c5)c(Cl)c4)c23)CC1 [Example 122, N-{3-chloro-4-[(3-fluorobenzyl)oxy]phenyl}-2-{2-[4-(2-methoxyethyl)piperazin-1-yl]ethyl}-4,5-dihydro-2H-pyrimido[5′,4′:4,5]thieno[2,3-e]indazol-6-amine]
≤ 50 | ≤ 1 | OCCn1cc2c(n1)CCc1c-2sc2ncnc(Nc3ccc(OCc4ccccc4)c(Cl)c3)c12 [Example 124, 2-(6-{[4-(benzyloxy)-3-chlorophenyl]amino}-4,5-dihydro-2H-pyrimido[5′,4′:4,5]thieno[2,3-e]indazol-2-yl)ethanol]
≤ 50 | ≤ 1 | CS(=O)(=O)OCCn1cc2c(n1)CCc1c-2sc2ncnc(Nc3ccc(OCc4ccccc4)c(Cl)c3)c12 [Example 125, 2-(6-{[4-(benzyloxy)-3-chlorophenyl]amino}-4,5-dihydro-2H-pyrimido[5′,4′:4,5]thieno[2,3-e]indazol-2-yl)ethyl methanesulfonate]
≤ 50 | ≤ 1 | C=CCn1cc2c(n1)CCc1c-2sc2ncnc(Nc3ccc(OCc4cccc(F)c4)c(Cl)c3)c12 [Example 128, 2-allyl-N-{3-chloro-4-[(3-fluorobenzyl)oxy]phenyl}-4,5-dihydro-2H-pyrimido[5′,4′:4,5]thieno[2,3-e]indazol-6-amine trifluoroacetate (Salt)]
≤ 50 | ≤ 5 | CCCn1cc2c(n1)CCc1c-2sc2ncnc(Nc3ccc(OCc4cccc(F)c4)c(Cl)c3)c12 [Example 130, N-{3-chloro-4-[(3-fluorobenzyl)oxy]phenyl}-2-propyl-4,5-dihydro-2H-pyrimido[5′,4′:4,5]thieno[2,3-e]indazol-6-amine trifluoroacetate]
